Legend:
[1] = test system: H460, MGC80-3 and LNCaP cells; experiment: cytochrome c release by immunostaining; format: cell-based; settings: 75 μM, 6 hr
Procedure: To uncover the consequence of RXRα mitochondrial localization induced by sulindac sulfide, H460, MGC80-3 and LnCap cells were treated with or without sulindac sulfide and RXRα mitochondrial and cytochrome c release were determined by immunostaining, as described above. Cells were treated with or without sulindac sulfide (75.micro.M) for 6 hr. Cells were then stained with RXRα, Hsp6, and cytochrome c (cyt c).

[2] = biological target: T1, RXR.alpha (Homo sapiens, UniProt P19793); experiment: isothermal titration calorimetry (ITC); format: binding; settings: data not shown
T1 sequence (P19793 1-462): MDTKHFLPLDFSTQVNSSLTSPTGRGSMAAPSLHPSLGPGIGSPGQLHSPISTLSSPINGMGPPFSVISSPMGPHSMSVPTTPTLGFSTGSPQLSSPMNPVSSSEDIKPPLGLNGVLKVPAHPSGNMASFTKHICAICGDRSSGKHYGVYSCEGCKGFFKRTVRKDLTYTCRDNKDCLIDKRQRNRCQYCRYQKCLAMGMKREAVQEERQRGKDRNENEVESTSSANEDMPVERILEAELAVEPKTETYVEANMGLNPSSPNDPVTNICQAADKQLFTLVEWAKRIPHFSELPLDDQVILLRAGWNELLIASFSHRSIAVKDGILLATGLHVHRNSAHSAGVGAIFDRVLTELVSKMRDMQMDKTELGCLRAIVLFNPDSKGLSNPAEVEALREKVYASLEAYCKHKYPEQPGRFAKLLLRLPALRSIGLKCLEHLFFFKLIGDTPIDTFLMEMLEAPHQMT
Procedure: ITC is a thermodynamic technique for monitoring the binding reaction of two components. When a protein binds a ligand, heat is either generated or absorbed, and quantitation of this heat allows very accurate determination of the binding dissociation constant (kD), reaction stoichiometry (n), enthalpy and entropy. Heat effects a small as 0.2.micro.cal can be measured and titrations can be done on as little as 1 ml of a dilute solution. (See generally, Pierce, M. M., Raman, C. S., and Nall, B. T., Methods, (1999) 19: 213-21)

[3] = test system: CV-1, MGC80-3, HEK293T and HCT116 cells; experiment: apoptosis determined by DAPI staining; format: cell-based; settings: 75 μM, 24 hr
Procedure: To determine the involvement of RXRα in sulindac sulfide-induced apoptosis of cancer cells, its effect on apoptosis of CV-1 cells (available from American Type Cell Culture, Manassas, Va., as accession number CCL-70) in the absence or presence of RXRα transfection was evaluated. FIG. 13a. RXR was cloned into a pGFP.C2 vector (GenBank Accession #: U19281) according to the procedure of Li et al., Science 289, 1159-1164 (2000). CV-1 cells were transfected with or without RXRα prior to treatment with sulindac sulfide (75.micro.M) for 24 hr. […] Louis, Mo., as catalogue number D9542), and the presence of nuclear fragmentation and/or chromatin condensation is an indicator of apoptosis. […] The requirement of RXRαwas also examined using RXRα siRNA SEQ ID No.: 12 approach. MGC80-3 cells, HEK293T (ATCC, accession number CCL-1573) and HCT116 (ATCC, accession number CCL-247) cell lines were transfected with RXRα siRNA or control siRNA using oligofectamine (from Invitrogen, Corp). Cell samples from each cell line were lysed and the cell extracts were prepared by immunoblotting to determine RXRα expression. Cells transfected with RXR.alpha siRNA or control siRNA were treated with sulindac sulfide (75.micro.M) for 24 hr, and apoptosis was determined by DAPI staining.

[4] = biological target: T2, RXRα LBD protein (Homo sapiens, UniProt P19793); experiment: sensitivity of RXRα protein to chymotrypsin digestion; format: biochemical; settings: 100 μM sulindac sulfide
T2 construct: made in house; host or cells: E. coli BL21 (pET vector, Novagen)
T2 sequence (P19793 224-462): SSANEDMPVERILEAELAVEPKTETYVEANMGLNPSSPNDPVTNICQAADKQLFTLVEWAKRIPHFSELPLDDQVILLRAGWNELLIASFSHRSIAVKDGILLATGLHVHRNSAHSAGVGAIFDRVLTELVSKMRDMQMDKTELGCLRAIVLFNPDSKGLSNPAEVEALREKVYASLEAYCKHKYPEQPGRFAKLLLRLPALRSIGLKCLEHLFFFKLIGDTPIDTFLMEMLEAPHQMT
Procedure: (FIG. 12b). LBD protein was incubated in the absence (DMSO) or presence of sulindac sulfide (100.micro.M) and then subjected to digestion by chymotrypsin for 30 min. Briefly, SEQ ID No.: 11 was cloned into the pET vector system available from Novagen and the recombinant vector was transformed into and expressed in BL21 cells. Digested reactions were separated by SDS-PAGE and visualized by Commassie blue staining. 35^S RXR protein was incubated for 30 minutes at room temperature in the presence or absence of 100.micro.M sulindac sulfide. Chymotrypsin was then added to a series of labeled protein reactions at final concentrations of 0, 37.5, 75, 150 and 300.micro.g per ml, and digestion proceeded for 20 minutes.

[5] = test system: RARβ expression; experiment: RARβ protein expression by Western analysis in cancer cells; format: cell-based; settings: sulindac sulfide 100 μM, 24 hr
Procedure: The indicated cancer cells were treated for 24 h with or without trans-RA (10^-6 M), or 15d-PGJ2 (5.micro.M) or their combination. RARβ protein expression was determined by Western analysis.
The effect of sulindac sulfide on RXR transactivation was investigated for its effect of RARβ induction by all-trans-retinoic acid (tRA), which activates the RA response element (βRARE) in the RARβ promoter through an RAR/RXR heterodimer. […] The βRARE could be also activated by an RXR/PPAR heterodimer. […] Cells were treated for 24 hr with or without with trans-RA (10^-6 M), or SR11237 (10^-6 M), ciglitazone (10.micro.M), sulindac sulfide (100.micro.M) or the indicated combinations. RARβ protein expression was determined by Western analysis.

`CSc1ccc(/C=C2/C(C)=C(CC(=O)O)c3cc(F)ccc32)cc1` [sulindac sulfide] was tested, and the cytochrome c release [1] was “massively released”, the “binding to RXR.alpha by ITC” value [2] was “confirmed the binding” and the “apoptosis, cells transfected with RXRα” value ([3]; CV-1 cells, DAPI staining) was “extensive apoptosis”. For the same compound, the “apoptosis in cells transfected with RXRα siRNA versus control siRNA” value ([3]; MGC80-3, HEK293T and HCT116 cells) was “significant reduction of apoptosis”, the “sensitivity of RXRα protein to chymotrypsin” value [4] was “modulation of sensitivity of RXRα protein to chymotrypsin” and the “inducing effect of tRA on RARβ” value ([5]; ZR-75-1 and Calu-6 cells, trans-RA 10^-6 M) was “effectively suppressed”. The “activation of RXR/PPAR heterodimer by SR11237 and ciglitazone (RARβ expression)” value ([5]; SR11237 10^-6 M, ciglitazone 10 μM) was “effectively inhibited”.

— patent publication US8105798B2, “Cytoplasmic activity of retinoid X receptor and its regulation by ligands and dimerization” (The Burnham Institute, priority 2003, dated 2012)
